The values that follow come from patent US10308658B2, “Salt of EGFR inhibitor, crystalline form and uses thereof” (SUNSHINE LAKE PHARMA CO., LTD., priority 2015, dated 2019).

The target of one data set is EGFR (Homo sapiens, UniProt P00533). The conditions noted are these: as disclosed in CN 103102344 A; cited from earlier work.
Data set [1] is described as follows: Pharmacokinetic assay in beagle dogs. It counts as in vivo. The conditions noted are these: for AUC(0-inf) / AUC(0-t) / Cmax / Tmax / half-life: dog, in vivo, oral, capsule, 5 mg/kg as compound of Formula (II). On the procedure:
The pharmacokinetic properties of the compound of Formula (II) and crystalline form I of the invention were assessed in beagle dogs: each group having 3 beagle dogs was administered by oral in a capsule form. The dosage amount of crystalline form I was converted and determined according to the compound of Formula (II) at a dosage of 5 mg/kg.

The nature of data set [2]: Accelerated test (40±2° C./75%±5% RH, six months). Type of data set: physicochemical. As to conditions: for Impurities (total impurities, %) / Moisture (%): 40±2° C./75%±5% RH. On the procedure: (§1) The purity of the compound used in the stability test or accelerated test is measured by Aglient 1200 high performance liquid chromatography with VWD detector. The chromatographic column model is ZORBAX Extend-C18 (4.6×150 mm, […]), the detection wavelength is 250 nm, the flow rate is 1.0 mL/min, the column temperature is 40° C., and the mobile phase is 10 mM KH2PO4 (pH=7.5)-acetonitrile (v/v=55/45).
According to “Guidelines for the stability test of raw materials and preparations” (Chinese Pharmacopoeia, 2015, 4th edition, general rules 9001), the accelerated test of crystalline form I was practiced as follows:
Medicinal low density polyethylene bag (the size was 140*120*0.104 mm^3, the manufacture was Tianjin Litian Medicine Packing Material Co., Ltd, and the batch number was 121238.) was used as inner package material, and the bag was sealed by nylon cable ties; and paper tube was used as a packaging material. The packaged samples were placed in a constant temperature and humidity test chamber (40±2° C./75%±5% RH) for six months for accelerated test. Sampling at the end of 1, 2, 3 or 6 months for testing the moisture content of the sample by using karl fischer titration, the content of impurities was measured by HPLC.

Data set [3] in a line: Hygroscopic test (Chinese Pharmacopoeia 2010, appendix XIX J). It counts as physicochemical. As to conditions: 25° C.±1° C., relative humidity 80%±2%, 24 h; for Hygroscopic weight gain: dimethanesulfonate monohydrate. The source says:
1. Instruments: one hundred thousandth electronic balance, type: XP205DR, manufacturer: Mettler.
2. Test method deriving from Chinese Pharmacopoeia 2010, appendix XIX J: Guideline on pharmaceutical hygroscopic test. Specific method is described as follows:
1) Placing a dried glass-stoppered, weighing bottle (outer diameter: 50 mm, height: 15 mm) in a thermostatic drier with saturated aqueous ammonium chloride or ammonium sulfate solution in the bottom at the previous day of the test maintaining the temperature at 25° C.±1° C., and the glass-stoppered, weighing bottle was weighed precisely.
2) Taking and weighing an appropriate amount of the sample (m1), and placing the sample into the weighing bottle with thickness of about 1 mm.
3) Opening the weighing bottle, and placing the glass stopper with the opened weighing bottle in a constant temperature and humidity condition for 24 h.
4) Sealing the weighing bottle with glass stopper, and the weighing bottle sealed with glass stopper was weighed precisely (m2). The percentage (%) of weight gain was calculated. Percentage (%) of weight gain=(m2−m1−m0)/m1×100%
5) The hygroscopic features and definition of hygroscopic weight gain are summarized in table 3 (deriving from Chinese Pharmacopoeia 2010, appendix XIX J: Guideline on pharmaceutical hygroscopic test, test conditions: 25° C.±1° C., Relative Humidity 80%±2%).

Data set [4] can be described thus: Stability test (high temperature, high humidity, illumination). Type of data set: physicochemical. The procedure:
as §1
According to “Guidelines for the stability test of raw materials and preparations” (Chinese Pharmacopoeia, 2015, 4th edition, general rules 9001), the stability of crystalline form I was tested as follows:
Appropriate amount of sample was taken into the flat weighing bottle to form a thin layer of no more than 5 mm thick. […] The content of impurities was tested by HPLC.

Setting [5] is: oral capsule, individual data analysis.

Chain of EGFR (P00533 25-1210, species assumed): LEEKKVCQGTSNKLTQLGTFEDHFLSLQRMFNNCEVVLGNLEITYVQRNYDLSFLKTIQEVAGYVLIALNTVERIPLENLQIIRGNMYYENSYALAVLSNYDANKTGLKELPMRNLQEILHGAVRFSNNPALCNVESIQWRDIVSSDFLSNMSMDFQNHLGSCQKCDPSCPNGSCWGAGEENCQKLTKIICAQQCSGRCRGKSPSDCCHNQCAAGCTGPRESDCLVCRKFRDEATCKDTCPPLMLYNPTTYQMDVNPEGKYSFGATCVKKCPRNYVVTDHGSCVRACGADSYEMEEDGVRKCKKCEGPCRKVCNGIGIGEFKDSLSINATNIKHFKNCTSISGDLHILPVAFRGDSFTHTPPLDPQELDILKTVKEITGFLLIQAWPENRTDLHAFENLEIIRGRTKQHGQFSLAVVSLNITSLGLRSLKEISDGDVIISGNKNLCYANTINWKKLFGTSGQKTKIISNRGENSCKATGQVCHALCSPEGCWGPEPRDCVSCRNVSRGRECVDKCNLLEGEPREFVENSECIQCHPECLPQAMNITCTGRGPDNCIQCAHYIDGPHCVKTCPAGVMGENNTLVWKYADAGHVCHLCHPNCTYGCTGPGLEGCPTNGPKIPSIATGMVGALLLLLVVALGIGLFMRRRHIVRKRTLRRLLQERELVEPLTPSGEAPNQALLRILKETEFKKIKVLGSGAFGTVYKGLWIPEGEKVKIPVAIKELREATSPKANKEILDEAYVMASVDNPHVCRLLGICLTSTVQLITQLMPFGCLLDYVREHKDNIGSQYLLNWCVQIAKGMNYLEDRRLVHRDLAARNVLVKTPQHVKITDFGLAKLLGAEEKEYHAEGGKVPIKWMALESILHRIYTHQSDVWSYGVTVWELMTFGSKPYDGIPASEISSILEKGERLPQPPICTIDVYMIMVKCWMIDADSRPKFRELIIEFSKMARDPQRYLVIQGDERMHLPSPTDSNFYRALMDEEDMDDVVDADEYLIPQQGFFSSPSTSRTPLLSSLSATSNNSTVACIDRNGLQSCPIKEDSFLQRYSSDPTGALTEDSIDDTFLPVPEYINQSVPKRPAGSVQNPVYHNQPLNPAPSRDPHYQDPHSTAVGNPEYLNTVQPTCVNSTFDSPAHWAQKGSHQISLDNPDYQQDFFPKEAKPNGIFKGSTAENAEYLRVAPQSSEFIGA

For orientation: AUC(0-inf) means total exposure, with the tail of the curve extrapolated. Low values mean less exposure, high ones more exposure. A word on the AUC(0-t): it is exposure summed from dosing to a finite time, without extrapolation to infinity. A high value points to more exposure. As a reminder, the Cmax is the maximum level reached in the sampled fluid or tissue. A word on the Tmax: it is the time at which the peak concentration occurs. As usually defined, the half-life is how long it takes for the measured level to halve. A low value points to rapid decline. Regarding `COc1cc2ncnc(Nc3ccc(F)c(Cl)c3)c2cc1OCCCN1C[C@@H]2OCCO[C@@H]2C1` [Compound of Formula (II), 4-[(3-chloro-4-fluorophenyl)amino]-7-methoxy-6-[3-[(1R,6S)-2,5-dioxa-8-azabicyclo [4.3.0]nonan-8-yl]propoxy]quinazoline], at EGFR, the “inhibition activity against EGFR” value is “high inhibition activity”. For the same molecule, in data set [1], the AUC(0-inf) was 0.886 µg·h/mL, the AUC(0-t) was 0.825 µg·h/mL, the Cmax amounted to 0.125 µg/mL and the Tmax stood at 1.67 h. In data set [1], this molecule had a half-life of 3.62 h.
Take `COc1cc2ncnc(Nc3ccc(F)c(Cl)c3)c2cc1OCCCN1C[C@@H]2OCCO[C@@H]2C1.CS(=O)(=O)O.CS(=O)(=O)O.O` [Crystalline form I, 4-[(3-chloro-4-fluorophenyl)amino]-7-methoxy-6-[3-[(1R,6S)-2,5-dioxa-8-azabicyclo[4.3.0]nonan-8-yl]propoxy]quinazoline dimethanesulfonate monohydrate]: the “Impurities (total impurities, %)” value in data set [2] (0 day) was 0.18%; in data set [2] (One month), 0.18%; in data set [2] (Six months), 0.17%; in data set [2] (Three months), 0.18%; in data set [2] (Two months) it was 0.17%; in data set [4] (0 day) it was 0.13%. Besides, the “Impurities (total impurities, %)” value in data set [4] (High humidity 25° C. ± 2° C./92.5% RH, 5 days) was 0.14%; in data set [4] (High humidity 25° C. ± 2° C./92.5% RH, 10 days) it was 0.16%; in data set [4] (High temperature 60° C. ± 2° C., 5 days) it was 0.12%; in data set [4] (High temperature 60° C. ± 2° C., 10 days), 0.14%; in data set [4] (Illumination 4500 ± 500 lx, 5 days), 0.13%; in data set [4] (Illumination 4500 ± 500 lx, 10 days), 0.13%. Also, the “Impurities (total impurities, %)” value in data set [4] (Illumination 4500 ± 500 lx, 15 days) came out at 0.14%. In addition, the “Moisture (%)” value in data set [2] (0 day) came to 2.79%; in data set [2] (One month), 2.92%; in data set [2] (Six months), 2.86%; in data set [2] (Three months), 3.09%; in data set [2] (Two months), 2.87%. In addition, the “quality (stability)” value in data set [2] (accelerated test condition for six months, low density polyethylene bag as inner package) was “stable”; in data set [4] (high temperature, high humidity or illumination condition), “stable”. Also, the Hygroscopic feature entry in data set [3] is listed as “almost no hygroscopicity”. Besides, the Hygroscopic weight gain in data set [3] and in data set [3] (listed as crystalline form I) was 0.074% each time. In data set [4] (high temperature 10 days, high humidity 10 days, illumination 15 days), the change of impurity result was “no obvious change”. In data set [1], this molecule returned an AUC(0-inf) of 1.47 µg·h/mL. The molecule also returned an AUC(0-t) in data set [1] of 1.45 µg·h/mL. The molecule further had a Cmax in data set [1] of 0.231 µg/mL. In data set [1], the Tmax worked out at 1.33 h. This molecule also gave a half-life in data set [1] of 3.65 h. In addition, the “Tmax time compared with compound of Formula (II)” value in data set [1] (oral capsule) was “earlier than compound of Formula (II)”. Besides, in data set [1] (setting [5]), the “absorption compared with compound of Formula (II)” value is “faster absorption”. For the same molecule, the “exposure level compared with compound of Formula (II)” value in data set [1] (setting [5]) is reported as “higher exposure level”.
